# Patent US7531320B2, “Modulation of β-catenin/TCF-activated transcription” (priority 2003, dated 2009)
# Biological target: T1, p300 (1-111) (Homo sapiens, UniProt Q09472)
# T1 construct: 6xHis (C); HSV tag (C); expressed in transfected cells
# Assay: Pull-down of p300 deletion constructs on COMPOUND 2 coated beads, competition with excess COMPOUND 1
# Format: binding
# Settings: p300 (1-111), (1-211), (1-351) in SW480 lysates, 150 μM COMPOUND 1
# Experimental: FIG. 2. The first 111 amino acids of CBP, but not p300, specifically bind COMPOUND 1. • A. Schematic representation of the wild-type and deletion constructs for CBP. • B. CBP (1-111) contains the minimal binding domain of COMPOUND 1. Expression levels of CBP deletion constructs in SW480 cells are shown (upper panel). 10 μg of total protein was subjected to gel electrophoresis and subjected to immunoblotting using anti-His antibodies. Whole cell lysates of SW480 cells expressing CBP deletion constructs were bound to streptavidin-agarose beads coated with 100 μM of COMPOUND 2. The bound fractions were subjected to gel electrophoresis and immunoblotting using anti-His antibodies (lower panel). Arrows point to constructs which remained bound to COMPOUND 2 coated beads. • C. […] CBP deletion constructs, CBP(1-111),CBP (1-211), and CBP (1-351) and p300 deletion constructs, p300 (1-111), p300 (1-211), and p300 (1-351) were transfected into SW480 cells. Whole cell lysates were incubated with streptavidin-agarose beads or streptavidin-agarose beads coated with 100 μM COMPOUND 2 (lower panel). The binding of CBP constructs (1-111,1-211, and 1-351) and p300 constructs (1-111,1-211, and 1-351) to the beads was challenged with excess COMPOUND 1 (150 μM). • D. CBP (1-111) binds to COMPOUND 1 in a phosphorylation independent manner. […]
# T1 sequence (Q09472 1-117): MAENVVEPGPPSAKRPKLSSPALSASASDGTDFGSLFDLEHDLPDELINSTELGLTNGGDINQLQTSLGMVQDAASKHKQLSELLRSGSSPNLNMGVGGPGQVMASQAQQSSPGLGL
smiles,measurement,value
O=C1C(Cc2ccc(O)cc2)N2C(=O)CCN(C(=O)NCc3ccccc3)C2CN1Cc1cccc2ccccc12 (stereo not shown) [COMPOUND 1],Competition of p300 fragment binding to COMPOUND 2 beads by excess COMPOUND 1,failed to have any effect
